Experimental data as given in article PMC12580772, “A First-in-Human Study of ATM Inhibitor Lartesertib as Monotherapy in Patients with Advanced Solid Tumors” (Clinical Cancer Research, 2025).

Tested on: patients with advanced solid tumors
Assay: Phase I dose escalation: safety, tolerability, DLTs and MTD
Format: in vivo
Experimental: DDRiver Solid Tumors 410 was an open-label, first-in-human, multicenter, phase I study of lartesertib monotherapy, continuously administered once daily, conducted at three study sites in the United States and Canada. Part 1A was a lartesertib monotherapy dose-escalation study designed to evaluate the safety, tolerability, pharmacokinetics (PK), pharmacodynamics (PD), and early signs of efficacy in patients with advanced solid tumors. Patients were treated with lartesertib at increasing dose levels (DLs) ranging from 100 to 400 mg once daily. Each DL included a dose-limiting toxicity (DLT) observation period of 21 days; treatment was continued until disease progression, death, consent withdrawal, unacceptable toxicity, or the end of the study. Additional details are provided under Study Design in the Supplementary Material S1.
The primary endpoints were the occurrence of DLTs, adverse events (AE), and treatment-related and treatment-emergent AEs (TEAE), along with the occurrence of clinically significant changes in vital signs, laboratory parameters, and 12-lead electrocardiogram findings. The secondary endpoints included PK parameters of lartesertib in plasma after single and multiple doses; establishment of the recommended dose for expansion based on safety, PK, and PD data; absolute and relative changes overtime from baseline in ATM pathway readouts assessed by flow cytometry and immunohistochemistry; and objective response, duration of response, and progression-free survival (PFS) according to the RECIST version 1.1, as assessed by the investigator. Exploratory endpoints included the correlation of baseline and on-treatment biomarkers with response to lartesertib treatment as well as relative changes in total blood cell count, immune cells, and circulatory factors during exposure to lartesertib.
The DLT analysis set included all patients who received ≥80% of the planned cumulative dose during the DLT period (Period 1) and had completed the DLT period, or patients who experienced ≥1 DLT during the DLT period, regardless of the number of lartesertib doses administered. Additional details on all analysis sets are provided in the Supplementary Material S1. Analyses to determine dose escalation were performed on the DLT analysis set and were based on available safety and PK data. A Bayesian two-parameter logistic regression model (BLRM) was applied to assist the safety monitoring committee in dose recommendations during lartesertib dose escalation. For the determination of the MTD, posterior probabilities (2.5%, 25%, 50%, 75%, and 97.5% quantiles) for DLT rates at selected doses were estimated by a BLRM. The target toxicity of the model for MTD was set at 30%.
AEs and diseases were coded according to the Medical Dictionary for Regulatory Activities (RRID: SCR_003751) version 25.1 (until 30 days after the last study treatment). The severity of AEs was graded using the NCI Common Terminology Criteria for Adverse Events (RRID: SCR_010296) version 5.0.
Part 1A was a lartesertib monotherapy dose-escalation designed to determine the safety, tolerability, pharmacokinetics (PK), pharmacodynamics (PD), and early signs of efficacy in participants with solid tumors. For each patient, the study included a Screening period lasting up to 28 days and the estimated total duration in the study was an approximate of 105 days/15 weeks. Patients were treated with lartesertib orally as a tablet, at doses ranging from 100 to 400 mg once daily (QD) under a fasting condition of 2 hours pre-dose to 1-hour post-dose in general, and 2 hours pre-dose to 4 hours post-dose on days where PK-time matched triplicate ECG were collected. Patients were treated until disease progression, death, adverse events (AEs) leading to discontinuation of study intervention(s), or withdrawal of consent, whichever occurred first, or end of study. […]

## COc1cc2ncc3c(c2cc1-c1cn(C)nc1C)n(-c1c(F)cncc1OC)c(=O)n3C [lartesertib]
100 mg n = 2
  Any TEAE leading to death: 0 (0.0) n (%)
  Any lartesertib-related TEAE leading to death: 0 (0.0) n (%)
  TEAE: Urinary tract infection: 0 (0.0) n (%)
200 mg n = 7
  Any TEAE leading to death: 0 (0.0) n (%)
  Any lartesertib-related TEAE leading to death: 0 (0.0) n (%)
  TEAE: Urinary tract infection: 1 (14.3) n (%)
300 mg n = 9
  Any TEAE leading to death: 0 (0.0) n (%)
  Any lartesertib-related TEAE leading to death: 0 (0.0) n (%)
  TEAE: Urinary tract infection: 1 (11.1) n (%)
400 mg n = 4
  Any TEAE leading to death: 0 (0.0) n (%)
  Any lartesertib-related TEAE leading to death: 0 (0.0) n (%)
  TEAE: Urinary tract infection: 2 (50.0) n (%)
Total N = 22
  Any TEAE leading to death: 0 (0.0) n (%)
  Any lartesertib-related TEAE leading to death: 0 (0.0) n (%)
  TEAE: Urinary tract infection: 4 (18.2) n (%)
human, in vivo
  Abdominal pain, Grade ≥3: 1 (4.5) n (%)
  Abdominal pain, Grade ≥4: 0 (0.0) n (%)
  Abdominal pain, Grade ≥5: 0 (0.0) n (%)
  Alanine aminotransferase increased, Grade ≥3: 2 (9.2) n (%)
  Alanine aminotransferase increased, Grade ≥4: 0 (0.0) n (%)
  Alanine aminotransferase increased, Grade ≥5: 0 (0.0) n (%)
  Anemia, Grade ≥3: 4 (18.2) n (%)
  Anemia, Grade ≥4: 0 (0.0) n (%)
  Anemia, Grade ≥5: 0 (0.0) n (%)
  Any AESI cytopenia: 4 (18.2) n (%)
  Any AESI cytopenia, Grade ≥3 (all anemia events): 4 (18.2) n (%)
  Any TEAE: 22 (100.0) n (%)
  Any TEAE leading to permanent treatment discontinuation: 5 (22.7) n (%)
  Any TEAE leading to temporary treatment discontinuation: 5 (22.7) n (%)
  Any TEAE, Grade ≥3: 13 (59.1) n (%)
  Any TEAE, Grade ≥4: 1 (4.5) n (%)
  Any lartesertib-related TEAE: 15 (68.2) n (%)
  Any lartesertib-related TEAE, Grade ≥3: 4 (18.2) n (%)
  Any lartesertib-related TEAE, Grade ≥4: 1 (4.5) n (%)
  Any lartesertib-related serious TEAE: 2 (9.1) n (%)
  Any serious TEAE: 9 (40.9) n (%)
  Aspartate aminotransferase increased, Grade ≥3: 3 (13.6) n (%)
  Aspartate aminotransferase increased, Grade ≥4: 0 (0.0) n (%)
  Aspartate aminotransferase increased, Grade ≥5: 0 (0.0) n (%)
  Blood alkaline phosphatase increased, Grade ≥3: 1 (4.5) n (%)
  Blood alkaline phosphatase increased, Grade ≥4: 0 (0.0) n (%)
  Blood alkaline phosphatase increased, Grade ≥5: 0 (0.0) n (%)
  Blood and lymphatic system disorders, Grade ≥3: 4 (18.2) n (%)
  Blood and lymphatic system disorders, Grade ≥4: 0 (0.0) n (%)
  Blood and lymphatic system disorders, Grade ≥5: 0 (0.0) n (%)
  Blood bilirubin increased, Grade ≥3: 1 (4.5) n (%)
  Blood bilirubin increased, Grade ≥4: 0 (0.0) n (%)
  Blood bilirubin increased, Grade ≥5: 0 (0.0) n (%)
  Decreased appetite, Grade ≥3: 1 (4.5) n (%)
  Decreased appetite, Grade ≥4: 0 (0.0) n (%)
  Decreased appetite, Grade ≥5: 0 (0.0) n (%)
  Decreased neutrophil count, grade 1 or 2: 4.5%
  Decreased platelet count, grade 1 or 2: 4.5%
  Decreased white blood cell count, grade 1 or 2: 4.5%
  Dehydration, Grade ≥3: 1 (4.5) n (%)
  Dehydration, Grade ≥4: 0 (0.0) n (%)
  Dehydration, Grade ≥5: 0 (0.0) n (%)
  Gamma-glutamyltransferase increased, Grade ≥3: 1 (4.5) n (%)
  Gamma-glutamyltransferase increased, Grade ≥4: 0 (0.0) n (%)
  Gamma-glutamyltransferase increased, Grade ≥5: 0 (0.0) n (%)
  Gastrointestinal disorders, Grade ≥3: 3 (13.6) n (%)
  Gastrointestinal disorders, Grade ≥4: 0 (0.0) n (%)
  Gastrointestinal disorders, Grade ≥5: 0 (0.0) n (%)
  Grade ≥3 anemia: 18.2%
  Grade ≥3 decreased lymphocyte count: 13.6%
  Grade ≥3 increased aspartate aminotransferase: 13.6%
  Grade ≥3 maculopapular rash: 13.6%
  Immune system disorders, Grade ≥3: 1 (4.5) n (%)
  Immune system disorders, Grade ≥4: 1 (4.5) n (%)
  Immune system disorders, Grade ≥5: 0 (0.0) n (%)
  Investigations, Grade ≥3: 6 (27.3) n (%)
  Investigations, Grade ≥4: 0 (0.0) n (%)
  Investigations, Grade ≥5: 0 (0.0) n (%)
  Lartesertib-related TEAE: Aspartate aminotransferase increased: 3 (13.6) n (%)
  Lartesertib-related TEAE: Blood creatinine increased: 3 (13.6) n (%)
  Lartesertib-related TEAE: Diarrhea: 4 (18.2) n (%)
  Lartesertib-related TEAE: Headache: 3 (13.6) n (%)
  Lartesertib-related TEAE: Maculopapular rash: 5 (22.7) n (%)
  Lartesertib-related TEAE: Nausea: 5 (22.7) n (%)
  Lartesertib-related TEAE: Pyrexia: 6 (27.3) n (%)
  Lymphocyte count decreased, Grade ≥3: 3 (13.6) n (%)
  Lymphocyte count decreased, Grade ≥4: 0 (0.0) n (%)
  Lymphocyte count decreased, Grade ≥5: 0 (0.0) n (%)
  Maculopapular rash, Grade ≥3: 3 (13.6) n (%)
  Maculopapular rash, Grade ≥4: 0 (0.0) n (%)
  Maculopapular rash, Grade ≥5: 0 (0.0) n (%)
  Metabolism and nutrition disorders, Grade ≥3: 1 (4.5) n (%)
  Metabolism and nutrition disorders, Grade ≥4: 0 (0.0) n (%)
  Metabolism and nutrition disorders, Grade ≥5: 0 (0.0) n (%)
  Nausea, Grade ≥3: 2 (9.1) n (%)
  Nausea, Grade ≥4: 0 (0.0) n (%)
  Nausea, Grade ≥5: 0 (0.0) n (%)
  Patients with at least one TEAE: 100%
  Patients with at least one lartesertib-related TEAE: 68.2%
  Patients with lartesertib-related grade 3 TEAEs: 18.2%
  Patients with serious TEAEs: 40.9%
  Serious TEAE maculopapular rash: 9.1%
  Serious TEAE nausea: 9.1%
  Skin and subcutaneous tissue disorders, Grade ≥3: 3 (13.6) n (%)
  Skin and subcutaneous tissue disorders, Grade ≥4: 0 (0.0) n (%)
  Skin and subcutaneous tissue disorders, Grade ≥5: 0 (0.0) n (%)
  TEAE fatigue: 40.9%
  TEAE increased blood creatinine: 27.3%
  TEAE nausea: 27.3%
  TEAE pyrexia: 36.4%
  TEAE: Abdominal pain: 4 (18.2) n (%)
  TEAE: Alanine aminotransferase increased: 4 (18.2) n (%)
  TEAE: Anemia: 4 (18.2) n (%)
  TEAE: Aspartate aminotransferase increased: 4 (18.2) n (%)
  TEAE: Blood bilirubin increased: 3 (13.6) n (%)
  TEAE: Blood creatinine increased: 6 (27.3) n (%)
  TEAE: Decreased appetite: 3 (13.6) n (%)
  TEAE: Diarrhea: 4 (18.2) n (%)
  TEAE: Fatigue: 9 (40.9) n (%)
  TEAE: Headache: 3 (13.6) n (%)
  TEAE: Lymphocyte count decreased: 3 (13.6) n (%)
  TEAE: Maculopapular rash: 5 (22.7) n (%)
  TEAE: Nausea: 6 (27.3) n (%)
  TEAE: Pyrexia: 8 (36.4) n (%)
  TEAE: Vomiting: 5 (22.7) n (%)
  TEAEs, subjects with at least one event, Grade ≥3: 13 (59.1) n (%)
  TEAEs, subjects with at least one event, Grade ≥4: 1 (4.5) n (%)
  TEAEs, subjects with at least one event, Grade ≥5: 0 (0.0) n (%)
  Vomiting, Grade ≥3: 1 (4.5) n (%)
  Vomiting, Grade ≥4: 0 (0.0) n (%)
  Vomiting, Grade ≥5: 0 (0.0) n (%)
In vivo
  Changes in vital signs and triplicate electrocardiogram values: No clinically meaningful changes
  Patients with ≥1 treatment-related adverse events of grade ≥3: Five patients
oral, continuous once daily monotherapy, suggested by BLRM
  Maximum tolerated dose (MTD): 300 mg once daily
Study period
  TEAEs leading to death: No TEAEs led to death
